For 20 molecules, IC50 and inhibition results are on record in US7977387B2, “Aminobenzophenone compounds” (Leo Pharma A/S, priority 2003, dated 2011).

For one experiment, the system named is IL-1β. Put plainly: Inhibition of IL-1β secretion in LPS stimulated peripheral blood mononuclear cells. The class given is cell-based. To be noted: PBMC; LPS stimulated human peripheral blood mononuclear cells, 18 hours, ELISA; read-out: The median inhibition concentration (IC50, nM) of IL-1β. An outline of the steps:
(§1)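 Human PBMCs (5×10^5 cells/ml, RPMI 1640 + 2% FCS) pre-treated with compound 30 min, then stimulated with LPS ([…]) for 18 h. Secreted IL-1β and TNF-α quantified by ELISA; IC50 values calculated.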

Another experiment deals with TNF-α. Put plainly: Inhibition of TNF-α secretion in LPS stimulated peripheral blood mononuclear cells. The class given is cell-based. To be noted: PBMC; LPS stimulated human peripheral blood mononuclear cells, 18 hours, ELISA; read-out: The median inhibition concentration (IC50, nM) of TNF-α. An outline of the steps:
as §1

The subject of experiment [1] is LPS induced TNF-α response. Put plainly: In vivo screening model of LPS induced TNF-α response in mice. To be noted: Mus musculus, mice (C3H/HeN), dosed 1 hour prior to LPS, plasma TNF-α 80-90 minutes after LPS, vs LPS treated control group, read-out: In vivo inhibition of LPS induced TNF-α production (in %). As to the method:
In Vivo Screening Model of LPS Induced TNF-α Response in Mice
To study the effect of compounds of the present invention in vivo, an in vivo screening model of LPS induced TNF-α response in mice was set up as follows: Groups of 6 mice (C3H/HeN, female, about 8 weeks (20 g), Bomholtgaard) were dosed with test compounds in suspension vehicle 1 hour prior to LPS administration (LPS from E. coli 055:B5, L-4005, Sigma). At time 0, the mice were dosed ip with 1.0 mg LPS/kg. After anesthetization with Hypnorm/Dormicum, the mice were bled from the periorbital venous plexus 80-90 minutes after LPS administration. The blood samples were sampled in EDTA stabilised tubes and centrifuged at 4000 rpm for 10 minutes at 4° C. The plasma level of TNF-α was analysed by ELISA. Compound 156 of WO 98/32730 was used as reference compound. The plasma level of TNF-α was determined using a sandwich ELISA. Microtiter plates were coated with a monoclonal antibody against mouse TNF-α, washed and blocked with a casein buffer. Samples of mouse TNF-α recombinant standards were added to the wells of the microtiter plates and incubated. All standards were tested in triplicate, all plasma samples in single. After sample and standard incubation, the plates were washed and incubated with biotinylated polyclonal secondary antibody against mouse TNF-α and washed. Enzyme conjugate was added to all wells and incubated. Substrate was added and the enzyme/substrate reaction stopped after 15 minutes at room temperature with 1M H2SO4. The colour development (OD) was measured at 450 nm on an ELISA reader and the background OD at 620 nm was subtracted. […] The results of the tested compounds are indicated as a percentage inhibition compared to an LPS treated control group. Compounds were tested at 10 mg/kg. The Mann-Whitney test was used to compare drug treated groups to the LPS treated control group (p<0.05).

As for `Cc1ccc(C(=O)NC(C)(CO)CO)cc1C(=O)c1ccc(Nc2ccc(F)cc2F)cc1Cl` [Compound 157, 3-[2-Chloro-4-(2,4-difluoro-phenylamino)-benzoyl]-N-(2-hydroxy-1-hydroxymethyl-1-methyl-ethyl)-4-methyl-benzamide], the results for the IC50 with IL-1β and in the experiment on TNF-α were 2.2 nM and 0.9 nM, respectively. Further, in experiment [1], the inhibition at 10 mg/kg is 83%.
The like results for `Cc1ccc(C(=O)NCCF)cc1C(=O)c1ccc(Nc2ccc(F)cc2F)cc1` [Compound 163, 3-[4-(2,4-Difluoro-phenylamino)-benzoyl]-N-(2-fluoro-ethyl)-4-methyl-benzamide] were, in that order, 2.5 nM, 2.5 nM and 66%.
As to `Cc1cc(F)ccc1Nc1ccc(C(=O)c2cc(C(=O)NCC3CCCO3)ccc2C)c(Cl)c1` (stereo not drawn) [Compound 104, 3-[2-Chloro-4-(4-fluoro-2-methylphenylamino)benzoyl]-4-methyl-N-(tetrahydrofuran-2-ylmethyl)benzamide], the IC50 with IL-1β came to 2 nM; with TNF-α, 1.3 nM. For the same molecule, the inhibition at 10 mg/kg in experiment [1] was found to be 95%.
The like results for `CSCCC(=O)Nc1ccc(C)c(C(=O)c2ccc(Nc3ccc(F)cc3F)cc2Cl)c1` [Compound 251, N-{3-[2-Chloro-4-(2,4-difluoro-phenylamino)-benzoyl]-4-methyl-phenyl}-3-methylsulfanyl-propionamide] were, in that order, 1.1 nM, 0.4 nM and 49%.
The like results for `COc1ccc(C(=O)NCC(F)F)cc1C(=O)c1ccc(Nc2ccc(F)cc2)cc1Cl` [Compound 196, 3-[2-Chloro-4-(4-fluoro-phenylamino)-benzoyl]-N-(2,2-difluoro-ethyl)-4-methoxy-benzamide] were, in that order, 3.2 nM, 1 nM and 66%.
The corresponding values for `Cc1ccc(C(=O)NC(C)(C)CO)cc1C(=O)c1ccc(Nc2ccc(F)cc2F)cc1Cl` [Compound 156, 3-[2-Chloro-4-(2,4-difluoro-phenylamino)-benzoyl]-N-(2-hydroxy-1,1-dimethyl-ethyl)-4-methyl-benzamide] are 4.5 nM, 0.9 nM and 73%.
Consider `CCCNC(=O)Nc1ccc(C)c(C(=O)c2ccc(Nc3ccc(F)cc3F)cc2Cl)c1` [Compound 264, 1-{3-[2-Chloro-4-(2,4-difluoro-phenylamino)-benzoyl]-4-methyl-phenyl}-3-propyl-urea], for which the IC50 with IL-1β turned out to be 1 nM; with TNF-α, 0.3 nM. Further, in experiment [1], the inhibition at 10 mg/kg was 87%.
Turning to `Cc1ccc(C(=O)NCCCO)cc1C(=O)c1ccc(Nc2ccc(F)cc2F)cc1Cl` [Compound 155, 3-[2-Chloro-4-(2,4-difluoro-phenylamino)-benzoyl]-N-(3-hydroxy-propyl)-4-methyl-benzamide], the IC50 in the experiment with IL-1β was found to be 0.6 nM; in the experiment on TNF-α it was 0.2 nM. Moreover, the inhibition at 10 mg/kg in experiment [1] worked out at 91%.
The corresponding values for `C=CCNC(=O)c1ccc(C)c(C(=O)c2ccc(Nc3ccc(F)cc3F)cc2Cl)c1` [Compound 170, N-Allyl-3-[2-chloro-4-(2,4-difluoro-phenylamino)-benzoyl]-4-methyl-benzamide] are 3.2 nM, 2.5 nM and 87%.
Turning to `CCOC(=O)CNC(=O)c1ccc(C)c(C(=O)c2ccc(Nc3ccc(Cl)cc3F)cc2Cl)c1` [Compound 123, {3-[2-Chloro-4-(4-chloro-2-fluoro-phenylamino)-benzoyl]-4-methyl-benzoylamino}acetic acid ethyl ester], the IC50 came to 0.5 nM in the experiment on IL-1β and 0.3 nM in the experiment on TNF-α. For the same molecule, the inhibition at 10 mg/kg in experiment [1] turned out to be 47%.
For the molecule `Cc1ccc(C(=O)NCCO)cc1C(=O)c1ccc(Nc2ccc(Br)cc2N)cc1Cl` [Compound 113, 3-[4-(2-Amino-4-bromophenylamino)-2-chlorobenzoyl]-N-(2-hydroxyethyl)-4-methylbenzamide], the values for the IC50 in the experiment with IL-1β and in the experiment with TNF-α were 4 nM and 1.8 nM, respectively. The inhibition at 10 mg/kg in experiment [1] was determined as 83%.
For `CCNC(=O)c1ccc(C)c(C(=O)c2ccc(Nc3ccccc3N)cc2Cl)c1` [Compound 117, 3-[4-(2-Aminophenylamino)-2-chlorobenzoyl]-N-ethyl-4-methylbenzamide], the values for the IC50 in the experiment with IL-1β and in the experiment with TNF-α were 4 nM and 1 nM, respectively. Also, the inhibition at 10 mg/kg in experiment [1] came out at 71%.
The corresponding values for `Cc1ccc(C(=O)NCCO)cc1C(=O)c1ccc(Nc2cccc(F)c2C)cc1Cl` [Compound 186, 3-[2-Chloro-4-(3-fluoro-2-methyl-phenylamino)-benzoyl]-N-(2-hydroxy-ethyl)-4-methyl-benzamide] are 0.8 nM, 0.5 nM and 92%.
Regarding `Cc1ccc(C(=O)NCC(F)F)cc1C(=O)c1ccc(Nc2ccc(F)cc2F)cc1Cl` [Compound 166], the IC50 with IL-1β was determined as 0.5 nM; in the experiment with TNF-α, 0.4 nM. In experiment [1], the inhibition at 10 mg/kg worked out at 83%.
The corresponding values for `COc1ccc(C(=O)NCC(O)CO)cc1C(=O)c1ccc(Nc2ccccc2)cc1Cl` (stereo not drawn) [Compound 202, 3-(2-Chloro-4-phenylamino-benzoyl)-N-(2,3-dihydroxy-propyl)-4-methoxy-benzamide] are 5 nM, 2 nM and 67%.
The like results for `Cc1cc(Br)ccc1Nc1ccc(C(=O)c2cc(C(=O)NCCO)ccc2C)c(Cl)c1` [Compound 114, 3-[4-(4-Bromo-2-methylphenylamino)-2-chlorobenzoyl]-N-(2-hydroxyethyl)-4-methylbenzamide] were, in that order, 2.5 nM, 0.4 nM and 72%.
The corresponding values for `Cc1ccc(C(=O)NCC(C)O)cc1C(=O)c1ccc(Nc2ccc(F)cc2F)cc1Cl` (stereo not drawn) [Compound 151, 3-[2-Chloro-4-(2,4-difluoro-phenylamino)-benzoyl]-N-(2-hydroxy-propyl)-4-methyl-benzamide] are 1.8 nM, 0.4 nM and 99%.
As for `COc1ccc(C(=O)NCCO)cc1C(=O)c1ccc(Nc2ccc(F)cc2F)cc1Cl` [Compound 140, 3-[2-Chloro-4-(2,4-difluoro-phenylamino)-benzoyl]-N-(2-hydroxy-ethyl)-4-methoxy-benzamide], the results for the IC50 in the experiment with IL-1β and with TNF-α were 1.4 nM and 1 nM, respectively. In experiment [1], the inhibition at 10 mg/kg was determined as 76%.
The like results for `CCNC(=O)c1ccc(C)c(C(=O)c2ccc(Nc3ccc(F)cc3F)cc2Cl)c1` [Compound 149, 3-[2-Chloro-4-(2,4-difluoro-phenylamino)-benzoyl]-N-ethyl-4-methyl-benzamide] were, in that order, 1.6 nM, 0.5 nM and 89%.
The like results for `CCC(CO)NC(=O)c1ccc(C)c(C(=O)c2ccc(Nc3ccc(F)cc3F)cc2Cl)c1` (stereo not drawn) [Compound 153, 3-[2-Chloro-4-(2,4-difluoro-phenylamino)-benzoyl]-N-(1-hydroxymethyl-propyl)-4-methyl-benzamide] were, in that order, 8.9 nM, 1.6 nM and 86%.
